Measurements from a melting point compilation (Tetko et al.; mined from patent text by program, amines drawn as free bases though some values may be those of a salt).

| melting point | Structure (SMILES) |
| --- | --- |
| 164 to 166 °C | COc1ccc(S(=O)(=O)n2ccc3cccc(-c4ccc(C#N)cc4)c32)cc1 |
| 166 to 169 °C | CCCc1nc(C(C)(C)O)c(C(=O)O)n1Cc1ccc(-c2ccccc2-c2nnn[nH]2)cc1 |
| 148 to 149 °C | COC(=O)c1cc(SCc2ccsc2)c(Oc2ccccc2)c(S(N)(=O)=O)c1 |
| 100 °C | CCCN(CCC)C(=O)C1CSc2ccc(N)cc21 (stereo not given) |
| 150 °C | CCCCCOc1cc(C=CC(=O)O)ccc1OC |
| 191 to 193 °C | Cc1cc(C)c(C(O)c2cccc(-n3ccnc3)c2)c(C)c1 (stereo not given) |
| 107 to 108 °C | NS(=O)(=O)c1ccc(-c2cc(F)c(F)cc2-c2ccc3c(c2)OCCO3)cc1 |
| 86 to 89 °C | CCCCCCCCCCCCCCCCNc1ccc(C(=O)OCC2CO2)cc1 (stereo not given) |
| 145 to 146 °C | CCOC1(c2ccccc2)CCN(C)CC1O (stereo not given) |
| 194 to 195 °C | CC(=O)OC1CCC2(C)C(CCC3C4CC5OC6(CC(C)C(C)(C)O6)C(C)(O)C5C4(C)CC(O)C32)C1 (stereo not given) |
| 180 to 182 °C | O=C1CNC(c2cc(-c3ccsc3)cc(-c3ccsc3)c2)=NN1CC(F)(F)F |
| 67 to 70 °C | CCCOCCOC(=O)C1=C(C)NC(C)=C(S(=O)(=O)N(C)CCOC)C1c1cccc([N+](=O)[O-])c1 (stereo not given) |
| 68 to 72 °C | CC#CCOc1ccc(S(=O)(=O)N2CCOCC2C(=O)NO)cc1 (stereo not given) |
| 148 to 150 °C | CCCCOC(=O)COc1ccc(C(=O)N(C)c2ccccc2Sc2ccccc2-c2nnn[nH]2)cc1 |
| 77 to 79 °C | O=[N+]([O-])c1ccc(Sc2ccccc2)cc1OCc1ccccc1 |
| 121 to 122 °C | O=C1CC[C@@H](COc2cccnc2)N1 |
| 79 to 82 °C | O=C(Nc1ccc(-n2nc(C(F)(F)F)cc2Br)cc1)c1ccncc1Cl |
| 188 to 190 °C | Cn1ncc(NCCN2CCN(c3cccc4c3OCCO4)CC2)cc1=O |
| 237 to 238 °C | O=[N+]([O-])c1ccc(C=Nc2c3c(nc4ccccc24)CCCC3)cc1 |
| 220 to 222 °C | c1ccc2[nH]c(SCc3cn4ccccc4n3)nc2c1 |
| 234 to 236 °C | COc1ccc2[nH]c(-c3n[nH]c4ccsc34)cc2n1 |
| 158 to 160 °C | CC(C)(C)c1nc(C=C2CCOC2=O)nc(C(C)(C)C)c1O |
| 182 °C | Cc1nc2sccn2c(=O)c1CCN1CCC(=C2c3ccccc3CCn3ccnc32)CC1 |
| 218 to 220 °C | O=C(O)CCN1CCN2c3ccccc3Sc3ccccc3C2C1 (stereo not given) |

| melting point | Structure (SMILES) |
| --- | --- |
| 72 to 75 °C | O=C(CC1CC1)Nc1c(C(=O)c2ccccc2)[nH]c2cc(Cl)ccc12 |
| 133 to 142 °C | NS(=O)(=O)c1cc(C(O)CN(Cc2ccccc2)Cc2ccccc2)ccc1N1CCCCC1 (stereo not given) |
| 60 to 62 °C | CCOC(=O)c1ccc(OCc2ccc(F)cc2)cc1 |
| 150 °C | COc1ccc(S(=O)(=O)N(CC(N)=O)c2ccc(Cl)cc2C(C)c2ccccc2Cl)cc1OC (stereo not given) |
| 189 to 191 °C | CN(C)NC(=O)NC1c2ccccc2Oc2ccccc21 |
| 118 to 120 °C | NC(=NCC(F)(F)F)Nc1ccnc(OCCCc2ccccn2)n1 |
| 127 to 130 °C | CCN(CC)CCOc1ccc(NC(=O)C#Cc2ccc(C(F)(F)F)cc2Cl)cc1N |
| 102 to 104 °C | CC1(C)OC(=O)C(C(=O)Cc2cc(F)c(F)cc2F)C(=O)O1 |
| 120 to 121 °C | CC(=O)c1cc2cc(Br)ccc2s1 |
| 123 to 125 °C | CC(=O)N1CCN(c2ccc(Nc3nccc(-c4sc(-c5cccnc5)nc4C)n3)cc2)CC1 |
| 180 to 183 °C | COc1cc(C)nc(NC(=O)NS(=O)(=O)c2cccc3c2OC(C)(C)O3)n1 |
| 125 to 126 °C | COc1ccc(C[C@H]2NC(=O)O[C@H]2c2ccc(F)cc2)cc1 (racemic) |
| 110 to 125 °C | CCC(CC)NC(=O)C[C@@H](C(=O)NC[C@@H](O)[C@H](Cc1ccccc1)NC(=O)[C@@H](NC(=O)c1ccc2ccccc2n1)[C@@H](C)O)C(C)(C)C |
| 181 to 182 °C | CC(C)Sc1cc([Si](C)(C)C)oc1C(=O)Nc1nnn[nH]1 |
| 205 to 208 °C | Nc1c2c(nc3ccccc13)-c1ccc(Cl)cc1CC2 |
| 90.5 to 92.5 °C | COC(=O)CCC(=O)c1ccc(-c2ccc(Cl)cc2F)cc1 |
| 94 to 95 °C | COC(=O)CCC(=O)c1ccc(CCCCNC(C)=O)cc1 |
| 128 °C | CCN(CC)c1cc(C)c2c(c1)C(=O)OC2=O |
| 107 °C | CCCCc1ccc(-c2ncc(C#N)c(Cl)n2)cc1 |
| 92 °C | CC(C)(C)c1csc(N)c1C#N |
| 154 to 156 °C | COc1cc(Nc2nccc(Nc3cccc(OC(F)(F)F)c3)n2)cc(OC)c1OC |
| 178 to 179 °C | CC(C)(C)OC(=O)NCCNC(=O)c1cnc(S)n1Cc1cc(F)cc(F)c1 |
| 126 to 129 °C | CCc1nc2c(c(C)c(C)n3nnnc23)n1CCOCCNS(=O)(=O)CCCCl |
| 169 to 171 °C | Cc1oc(-c2ccccc2)nc1CCOc1ccc(CCCC2OC(=O)NC2=O)cn1 (stereo not given) |

| melting point | Structure (SMILES) |
| --- | --- |
| 260 °C | O=C(Nc1nc2ccccc2s1)Nc1cccc2c1C1CCCCN1C2=O (stereo not given) |
| 172 to 175 °C | CCc1ccc(-n2c(-c3ccccn3)nc(SC)c(C#N)c2=O)cc1 |
| 207 to 209 °C | O=C(Nc1ccc(NS(=O)(=O)c2ccc(Cl)c(Cl)c2)cc1)Nc1ccc([N+](=O)[O-])cc1 |
| 140 to 141 °C | CCOC(=O)c1cnc2c(-c3cccc(Cl)c3)cnn2c1Cl |
| > 250 °C | N[C@]1(C(=O)O)C=C[C@H]2[C@H](C(=O)O)[C@H]21 |
| 59.5 to 61 °C | CCc1cc(CC)c2ccc(=O)n(CCN(C)C)c2n1 |
| 129 to 132 °C | Cc1ccc(Oc2ccc(-n3cnnn3)cc2)c(O)c1 |
| 42 °C | CCCCCCCCCCCCCCCCCCOC(=O)C=CC(=O)OCC |
| 135 to 136 °C | C=CCCCCCCCCCOc1ccc(-c2ccc(O)cc2)cc1 |
| 94 °C | COc1cc(C)c(NCCO)cc1[N+](=O)[O-] |
| > 250 °C | CCCOc1cc(C(=O)NC2CC(C)(C)NC(C)(C)C2)ccc1-c1cc2cc(Cl)c(Cl)cc2[nH]1 |
| 107 to 108 °C | CC(=O)c1ccc(OCc2ccccc2)cc1O |
| 161 °C | CC(=O)c1ccc(Br)c(S(N)(=O)=O)c1 |
| 240 to 244 °C | Cn1c2c(c3ccccc31)C(=O)NCC2 |
| 180 °C | N#Cc1ncn2c(C(F)(F)F)cc(-c3ccccc3Cl)nc12 |
| 238 to 240 °C | N#Cc1ccsc1C1=CC(=O)Nc2cc(-c3ccccc3F)ccc2N1 |
| 176 to 177 °C | CC(COc1ccc(CC2SC(=O)NC2=O)cc1)NCC(O)CSc1ccccc1 (stereo not given) |
| 162 to 164 °C | O=C1CC(=O)CC2(CCOCC2)C1 |
| 140 to 144 °C | CS(=O)c1cc2ccccc2[nH]1 (stereo not given) |
| 53 to 54 °C | C#CCC1(O)CCCCC1 |
| 209 to 216 °C | Cc1ccc2c(c1)Oc1cscc1C(=O)N2 |
| 164 to 172 °C | N#Cc1ccc(N(CCCCOc2ccc(OS(N)(=O)=O)cc2)n2cnnc2)cc1 |
| 270 to 271 °C | COc1cc(OC)c2ncc(C(=O)NCc3ccc(Cl)cc3)c(O)c2c1 |
| 278 to 279 °C | CCc1ccc2c(c1NC(=O)CC1c3ccccc3Oc3ccccc31)OC(C)C2 (stereo not given) |

| melting point | Structure (SMILES) |
| --- | --- |
| 82 to 86 °C | CC(C)[C@@H](C(=O)NCCCC(c1ccc(F)cc1)c1ccc(F)cc1)N(C)C1CCCCC1 |
| 89 to 91 °C | O=C(O)CCc1cc(C(c2cc(F)ccc2F)S(=O)(=O)c2ccc(Cl)cc2)c(F)cn1 (stereo not given) |
| 178 to 179 °C | Oc1ccc(OCCN2CCC(CC34CC5CC(CC(C5)C3)C4)CC2)cc1 |
| 44 to 45 °C | O=C(c1ccc(C2CCCCC2)cc1)c1ccccn1 |
| 162 to 165 °C | O=C1C=C(c2ccccc2O)CC1 |
| 246 to 249 °C | COc1ccc2[nH]c(C=Cc3ccc(OC)c(OC)c3)nc2c1 |
| 71 to 73 °C | CSc1ccc(C)cc1[N+](=O)[O-] |
| 116 to 117 °C | O=C1NC(=O)c2ccccc2/C1=C/Nc1cccc(CN2CCCCCC2)c1 |
| 156 to 158 °C | COc1c(F)cc(Cn2cc[nH]c2=S)cc1F |
| 172 to 174 °C | COc1ccc(N(C(C)=O)S(=O)(=O)c2ccc(C)cc2)c([N+](=O)[O-])c1 |
| 151 to 156 °C | C/C(=C(\C#N)C(N)=S)N1CCCOCC1 |
| 78 to 82 °C | CN=C(NC#N)NCCSCc1ccco1 |
| 209 to 211 °C | Cc1nc(-c2ccc3c(=O)n(CC(C)C)c(CNC(=O)OC(C)(C)C)c(-c4ccccc4)c3c2)sc1C#N |
| > 250 °C | CC(C)(C)NC(=O)COc1cc2c(cc1C#Cc1ccccc1)NC(=O)CC(c1cccc(C#N)c1)=N2 |
| 120 to 122 °C | CCCc1ccc2nc(N)sc2c1 |
| 65 to 70 °C | CCOC(=O)C(C#N)=CC=Cc1ccc(C(C)(C)C)cc1 |
| 140 °C | c1ccc2c(c1)C[C@H]1CSC(=Nc3cnccn3)N1C2 |
| 91 to 92 °C | N#Cc1c(N)cccc1N |
| 118 to 120 °C | CCCCc1ncc(CC(Cc2ccccc2)C(=O)OC)n1Cc1ccccc1Cl (stereo not given) |
| 101 to 103 °C | COc1ccc(C2=NN(CCCCCCNCC(O)c3ccc(N)c(C#N)c3)C(=O)C3CCCCC23)cc1OC (stereo not given) |
| 242 to 243 °C | COc1nc2cccnc2n(-c2ccc(Cl)cc2)c1=O |
| 188 to 192 °C | COc1cc2ccoc2cc1N1CCN(CC2Cc3ccccc3C2)CC1 |
| 140 to 148 °C | CCCCOc1ncc(I)cc1C(N)=S |
| 156 to 158 °C | O=C(Nc1ccc(-n2nc(C(F)(F)F)cc2C(F)(F)F)cc1)c1ccc(Cl)cc1F |

| Structure (SMILES) | melting point |
| --- | --- |
| CCC(N)(CC)Cc1c[nH]c2ccccc12 | 92 to 94 °C |
| O=C(CBr)c1ccc(Br)c(Br)c1 | 60 to 61 °C |
| O=S1(=O)N2CN3CN1CP(C3)C2 | 274 to 275 °C |
| O=C(O)c1ccccc1I(=O)=O | 226 to 234 °C |
| CCOC(=O)C1CCNC1=O (stereo not given) | 74.5 to 75.5 °C |
| CCOC(=O)Nc1nc(C)c(-c2nc3ccccc3c(=O)n2-c2ccc(C)cc2)s1 | 220 to 222 °C |
| Nc1cccc(-c2ccc(CCN3CCN(C(=O)Cc4ccc(F)cc4)CC3)cc2)n1 | 143 to 145 °C |
| CC(C)(C)NC(=O)C(Br)CCl (stereo not given) | 163 to 168 °C |
| C=CCN(CC=C)Cc1noc(-c2ncn3c2[C@@H]2CCN2C(=O)c2ccccc2-3)n1 | 147 to 150 °C |
